From US9751861B2, “N1-(3,3,3-trifluoro-2-hydroxo-2-methylpropionyl)-piperidine derivatives as inhibitors of pyruvate dehydrogenase kinase” (MERCK PATENT GMBH, priority 2013, dated 2017) come the findings set out here.

In experiment [1] the target is T1, PDHK2 (Homo sapiens, UniProt Q15119).
T1 construct: purchased Carna Bioscience
The experiment is described as follows: Biochemical activity testing of PDHK2: PDC inactivation assay. The following applies: human rec PDHK2, PDC from porcine heart, ATP 5 μM; read-out: IC50 PDHK2 (enzyme assay). Summed up: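 Human recombinant PDHK2 (137 nM final) preincubated 30 min at RT with porcine heart PDC (20 mU/ml) and compound in pH 7.0 phosphate buffer, then phosphorylated with 5 μM ATP for 30 min at 37 °C. Residual PDC activity read as NADH fluorescence increase (Ex 340/Em 450) over 45 min; inhibitor-free reaction as full value, 3 mM DCA as zero, IC50 derived.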

The test system of experiment [2] is PDH-Elalpha (pSer300). As to the kind of experiment: Cellular immunofluorescence assay in HEK293T cells. The class given is cell-based. Conditions: Homo sapiens, HEK-293T, 5 hours incubation, anti-PDH-E1alpha pSer300 immunofluorescence, read-out: IC50 (cell data). Summed up:
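HEK293T cells were exposed to compound for 5 hours, then fixed, permeabilised and immunostained for PDH-Elalpha pSer300 with Hoechst counterstain, read by laser scanning cytometry. Percent effect was normalized to a pharmacological inhibitor control and fitted to dose-response curves.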

The target of experiment [3] is T2, human PDHK2 (12-407) (Homo sapiens, UniProt Q15119).
T2 construct: The human PDHK2 (12-407) was produced in E. coli; His-tag (cleaved yes); made in house; host or cells: E. coli
As to the kind of experiment: Isothermal titration calorimetry (ITC) binding. Conditions: 30° C., pH 7.5. In outline: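 Untagged PDHK2 (12-407) from E. coli at 50 μM titrated into 5 μM compound at 30° C in pH 7.5 HEPES/KCl/MgCl2/phosphate buffer, ≤1% DMSO. One-site fit gave KA, ΔH^obs and N after heat-of-dilution correction; protein concentration referenced to a standard inhibitor and compound concentration adjusted to 1:1 stoichiometry.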

As to `C[C@@](O)(C(=O)N1CCC(c2cncn2-c2ccc(Cl)cc2F)CC1)C(F)(F)F` [Compound A126, (R)-1-{4-[3-(4-Chloro-2-fluoro-phenyl)-3H-imidazol-4-yl]-piperidin-1-yl}-3,3,3-trifluoro-2-hydroxy-2-methyl-propan-1-one], the results for the IC50 in experiment [1] and in experiment [2] were less than 300 nM and 300 to 3000 nM, respectively. In experiment [3], this compound gave a Kd of less than 300 nM.
Take `C[C@@](O)(C(=O)N1CCC(n2ccnc2-c2ccccc2)CC1)C(F)(F)F` [Compound A61, (R)-3,3,3-Trifluoro-2-hydroxy-2-methyl-1-[4-(2-phenyl-imidazol-1-yl)-piperidin-1-yl]-propan-1-one]: the values for the IC50 in experiment [1] and in experiment [2] were less than 300 nM and 3000 to 50000 nM, respectively. Also, in experiment [3], the Kd was less than 300 nM.
Take `C[C@@H]1CN(C(=O)[C@@](C)(O)C(F)(F)F)CC[C@@H]1c1ccnn1[C@H]1CC[C@H](O)CC1` [Compound A121, (R)-3,3,3-Trifluoro-2-hydroxy-1-{(3S,4S)-4-[2-(4-hydroxy-cyclohexyl)-2H-pyrazol-3-yl]-3-methyl-piperidin-1-yl}-2-methyl-propan-1-one]: the values for the IC50 in experiment [1] and in experiment [2] were less than 300 nM and 300 to 3000 nM, respectively. This compound also displayed a Kd in experiment [3] of less than 300 nM.
On to `COc1ccc(-n2nccc2C2CCN(C(=O)[C@@](C)(O)C(F)(F)F)CC2)c(F)c1` [Compound A28, (R)-3,3,3-Trifluoro-1-{4-[2-(2-fluoro-4-methoxy-phenyl)-2H-pyrazol-3-yl]-piperidin-1-yl}-2-hydroxy-2-methyl-propan-1-one], for which the IC50 is less than 300 nM in experiment [1] and 300 to 3000 nM in experiment [2]. The same compound showed a Kd in experiment [3] of less than 300 nM.
`C[C@@](O)(C(=O)N1CCC(c2ccnn2-c2ccc(Cl)c(F)c2)CC1)C(F)(F)F` [Compound A100, (R)-1-{4-[2-(4-Chloro-3-fluoro-phenyl)-2H-pyrazol-3-yl]-piperidin-1-yl}-3,3,3-trifluoro-2-hydroxy-2-methyl-propan-1-one]: the IC50 in experiment [1] and in experiment [2] was 300 to 3000 nM throughout. The compound further gave a Kd in experiment [3] of less than 300 nM.
For the compound `C[C@@](O)(C(=O)N1CCC(c2ccnn2CC(F)(F)F)CC1)C(F)(F)F` [Compound A77, (R)-3,3,3-Trifluoro-2-hydroxy-2-methyl-1-{4-[2-(2,2,2-trifluoro-ethyl)-2H-pyrazol-3-yl]-piperidin-1-yl}-propan-1-one], the IC50 in experiment [1] and in experiment [2] was 3000 to 50000 nM in each case. The compound further had a Kd in experiment [3] of 300 to 3000 nM.
Turning to `C[C@@](O)(C(=O)N1CCC(c2ccnn2-c2ccc(F)cc2)CC1)C(F)(F)F` [Compound A14, (R)-3,3,3-Trifluoro-1-{4-[2-(4-fluoro-phenyl)-2H-pyrazol-3-yl]-piperidin-1-yl}-2-hydroxy-2-methyl-propan-1-one], the IC50 in experiment [1] is less than 300 nM; in experiment [2] it was 300 to 3000 nM. Besides, the Kd in experiment [3] was less than 300 nM.
As for `CC1CN(C(=O)[C@@](C)(O)C(F)(F)F)CCC1c1ccnn1-c1ccc(F)cc1F` (mixture of isomers) [Compound A31, (R)-1-{4-[2-(2,4-difluoro-phenyl)-2H-pyrazol-3-yl]-3-methyl-piperidin-1-yl}-3,3,3-trifluoro-2-hydroxy-2-methyl-propan-1-one], the IC50 in experiment [1] and in experiment [2] was less than 300 nM each time. Besides, the Kd in experiment [3] is less than 300 nM.
Consider `C[C@@](O)(C(=O)N1CCC(n2c(-c3ccccc3F)n[nH]c2=O)CC1)C(F)(F)F` [Compound A54, 5-(2-Fluoro-phenyl)-4-[1-((R)-3,3,3-trifluoro-2-hydroxy-2-methyl-propionyl)piperidin-4-yl]-2,4-dihydro-[1,2,4]triazol-3-one], for which the IC50 in experiment [1] was 300 to 3000 nM; in experiment [2], 3000 to 50000 nM. The compound further gave a Kd in experiment [3] of 300 to 3000 nM.
In the case of `COc1ccc(-n2nccc2[C@H]2CCN(C(=O)[C@@](C)(O)C(F)(F)F)C[C@H]2C)cn1` [Compound A113, (R)-3,3,3-Trifluoro-1-{(3S,4S)-4-[2-(6-methoxy-pyridin-3-yl)-2H-pyrazol-3-yl]-3-methyl-piperidin-1-yl}-2-hydroxy-2-methyl-propan-1-one], the IC50 in experiment [1] and in experiment [2] was less than 300 nM in each case. Also, the Kd in experiment [3] is less than 300 nM.
In the case of `Cc1csc(-n2nccc2C2CCN(C(=O)[C@@](C)(O)C(F)(F)F)CC2)n1` [Compound A86, (R)-3,3,3-Trifluoro-2-hydroxy-2-methyl-1-[4-[2-(4-methylthiazol-2-yl)-2H-pyrazol-3-yl]-1-piperidyl]propan-1-one], the IC50 in experiment [1] was in the range of 300 to 3000 nM; in experiment [2], 3000 to 50000 nM. Also, in experiment [3], the Kd was less than 300 nM.
Take `C[C@@](O)(C(=O)N1CCC(c2ccnn2-c2ccc(C(F)(F)F)cc2Cl)CC1)C(F)(F)F` [Compound A18, (R)-1-{4-[2-(2-Chloro-4-trifluoromethyl-phenyl)-2H-pyrazol-3-yl]-piperidin-1-yl}-3,3,3-trifluoro-2-hydroxy-2-methyl-propan-1-one]: the IC50 in experiment [1] is less than 300 nM; in experiment [2], 300 to 3000 nM. The same compound showed a Kd in experiment [3] of less than 300 nM.
For `C[C@@](O)(C(=O)N1CCC(c2ccnn2Cc2ccccc2)CC1)C(F)(F)F` [Compound A38, (R)-1-[4-(2-Benzyl-2H-pyrazol-3-yl)-piperidin-1-yl]-3,3,3-trifluoro-2-hydroxy-2-methyl-propan-1-one], the IC50 in experiment [1] and in experiment [2] was 300 to 3000 nM in each case. Besides, in experiment [3], the Kd is less than 300 nM.
As to `COc1ccc(-n2nccc2[C@H]2CCN(C(=O)[C@@](C)(O)C(F)(F)F)C[C@H]2C)cc1` [Compound A110, (R)-3,3,3-Trifluoro-1-{(3S,4S)-4-[2-(4-methoxy-phenyl)-2H-pyrazol-3-yl]-3-methyl-piperidin-1-yl}-2-hydroxy-2-methyl-propan-1-one], the IC50 in experiment [1] and in experiment [2] was less than 300 nM each time. This compound also had a Kd in experiment [3] of less than 300 nM.
Take `C[C@@H]1CN(C(=O)[C@@](C)(O)C(F)(F)F)CC[C@@H]1c1ccnn1-c1ccc(F)cn1` [Compound A118, (R)-3,3,3-Trifluoro-1-{(3S,4S)-4-[2-(5-fluoro-pyridin-2-yl)-2H-pyrazol-3-yl]-3-methyl-piperidin-1-yl}-2-hydroxy-2-methyl-propan-1-one]: the IC50 is less than 300 nM in experiment [1] and 300 to 3000 nM in experiment [2]. The same compound came in with a Kd in experiment [3] of less than 300 nM.
With `C[C@@H]1CN(C(=O)[C@@](C)(O)C(F)(F)F)CC[C@@H]1c1ccnn1-c1ccc(Cl)cc1` [Compound A119, (R)-1-{(3S,4S)-4-[2-(4-Chloro-phenyl)-2H-pyrazol-3-yl]-3-methyl-piperidin-1-yl}-3,3,3-trifluoro-2-hydroxy-2-methyl-propan-1-one], the IC50 in experiment [1] and in experiment [2] was less than 300 nM throughout. In experiment [3], this compound returned a Kd of less than 300 nM.
Regarding `C[C@@](O)(C(=O)N1CCC(c2cncn2-c2ccc(C(F)(F)F)cc2)CC1)C(F)(F)F` [Compound A127, (R)-3,3,3-Trifluoro-2-hydroxy-2-methyl-1-{4-[3-(4-trifluoromethyl-phenyl)-3H-imidazol-4-yl]-piperidin-1-yl}-propan-1-one], the IC50 in experiment [1] and in experiment [2] was 300 to 3000 nM throughout. For the same compound, the Kd in experiment [3] is less than 300 nM.
Consider `CC(C)n1nccc1C1CCN(C(=O)[C@@](C)(O)C(F)(F)F)CC1` [Compound A36, (R)-1-[4-(2-Isopropyl-2H-pyrazol-3-yl)-piperidin-1-yl]-3,3,3-trifluoro-2-hydroxy-2-methyl-propan-1-one], for which the IC50 in experiment [1] lay in the range of 300 to 3000 nM; in experiment [2], 3000 to 50000 nM. In addition, the Kd in experiment [3] is less than 300 nM.
Regarding `C[C@@](O)(C(=O)N1CCC(c2ccn(-c3ccc(C(F)(F)F)cn3)n2)CC1)C(F)(F)F` [Compound A102, (R)-3,3,3-Trifluoro-2-hydroxy-2-methyl-1-{4-[1-(5-trifluoromethyl-pyridin-2-yl)-1 H-pyrazol-3-yl]-piperidin-1-yl}-propan-1-one], the IC50 in experiment [1] and in experiment [2] was 3000 to 50000 nM in each case. Besides, the Kd in experiment [3] lay in the range of 300 to 3000 nM.
In the case of `C[C@@](O)(C(=O)N1CCC(c2ccnn2-c2ccc(Cl)cc2)CC1)C(F)(F)F` [Compound A13, (R)-1-{4-[2-(4-Chloro-phenyl)-2H-pyrazol-3-yl]-piperidin-1-yl}-3,3,3-trifluoro-2-hydroxy-2-methyl-propan-1-one], the IC50 in experiment [1] was less than 300 nM; in experiment [2], 300 to 3000 nM. In experiment [3], this compound came in with a Kd of less than 300 nM.
Turning to `C[C@@](O)(C(=O)N1CCC(c2cncn2-c2ccc(F)cc2F)CC1)C(F)(F)F` [Compound A130, (R)-1-{4-[3-(2,4-Difluoro-phenyl)-3H-imidazol-4-yl]-piperidin-1-yl}-3,3,3-trifluoro-2-hydroxy-2-methyl-propan-1-one], the IC50 in experiment [1] and in experiment [2] was 300 to 3000 nM throughout. The compound further registered a Kd in experiment [3] of less than 300 nM.
On to `Cc1ccc(-n2nccc2C2CCN(C(=O)[C@@](C)(O)C(F)(F)F)CC2)c(F)c1` [Compound A16, (R)-3,3,3-Trifluoro-1-{4-[2-(2-fluoro-4-methyl-phenyl)-2H-pyrazol-3-yl]-piperidin-1-yl}-2-hydroxy-2-methyl-propan-1-one], for which the IC50 in experiment [1] was less than 300 nM; in experiment [2], 300 to 3000 nM. Further, in experiment [3], the Kd was less than 300 nM.
